From patent US20230141563A1, “METHODS AND COMPOSITIONS FOR ATTENUATING ANTI-VIRAL TRANSFER VECTOR IGM RESPONSES” (Selecta Biosciences, Inc., priority 2021, published 2023)

Test system: AAV IgG
Test: Serum AAV IgG (ELISA) in AAV-SEAP-injected mice
Assay type: in vivo, C57BL/6 female mice
Details: Example 12; SVP[Rapa] 100 μg; ibrutinib 500 μg
Protocol: At time indicated (days 5, 9, 12, 16, 21, 42, 47, 51, 55, 162,167,174, 195 and 210) mice were bled, serum separated from whole blood and stored at −20±5° C. until analysis. Then IgM antibodies to AAV was measured in ELISA: 96-well plates coated o/n with the AAV, washed and blocked on the following day, then diluted serum samples (1:40) added to the plate and incubated; plates washed, donkey anti-mouse IgM specific-HRP added and after another incubation and wash, the presence of IgM antibodies to AAV detected by adding TMB substrate and measuring at an absorbance of 450 nm with a reference wavelength of 570 nm (the intensity of the signal presented as top optical density, OD, is directly proportional to the quantity of IgM antibody in the sample).
Same serum samples from Example 3 were also tested for AAV IgG measured by ELISA along the same lines as IgM with the exception of goat anti-mouse IgG specific-HRP being used.

C=CC(=O)N1CCC[C@@H](n2nc(-c3ccc(Oc4ccccc4)cc3)c3c(N)ncnc32)C1 [ibrutinib]
animals AAV IgG-converting by d22: 10/10
